Experimental data: the supplement of paper PMC10307832

compound: CC1=CC(=CC=C1)NC2=NC(=CS2)C3=CC=NC=C3 + CC(C)C[C@H](NC(=O)[C@H](Cc1ccccc1)NC(=O)c1cnccn1)B(O)O [Bortezomib] (partner 0.002 µM); test: relative viability (nuclei count vs DMSO), 5 days (fraction); higher = more cells survive; settings: first compound 0.08 µM
Outline: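 Relative viability is defined as nuclei in treated wells over nuclei in vehicle wells. Duplicate plates were run and medians reported. Lung cancer cell lines in 1536-well plates were dosed by pin tool one day after seeding, with one drug or with a fixed anchor-drug dose plus five library-drug doses (not always all listed) in √10 steps, and nuclei were counted after 5 days.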

Row | Cell Line | relative viability
1 | LXF-289 | 0.952
2 | BEN | 0.816
3 | HARA | 1.09
4 | HCC-78 | 0.409
5 | NCI-H441 | 0.423
6 | LCLC-97TM1 | 0.715
7 | NCI-H2023 | 0.899
8 | A-427 | 0.84
9 | NCI-H460 | 1.03
10 | NCI-H727 | 0.547
11 | NCI-H1755 | 0.937
12 | NCI-H520 | 0.586
13 | NCI-H2405 | 0.929
14 | SW 1573 | 1.06
15 | 201T | 1.05
16 | NCI-H1975 | 0.361

Row | Cell Line | relative viability
17 | HCC-827 | 1.05
18 | NCI-H2347 | 0.748
19 | NCI-H1355 | 1.08
20 | NCI-H650 | 0.76
21 | NCI-H1666 | 0.503
22 | EPLC-272H | 1.03
23 | NCI-H23 | 1.17
24 | NCI-H1915 | 0.976
25 | NCI-H1437 | 0.473
26 | NCI-H322M | 1.18
27 | NCI-H1792 | 0.954
28 | NCI-H2085 | 1.02
29 | HCC-15 | 0.963
30 | PC-3 [JPC-3] | 0.743
31 | EKVX | 1.01
32 | LC-2-ad | 0.884

same assay, conditions: first compound 0.253 µM

Row | Cell Line | relative viability
33 | HCC-44 | 0.702
34 | LXF-289 | 0.959
35 | BEN | 0.618
36 | HARA | 1.16
37 | HCC-78 | 0.473
38 | NCI-H441 | 0.361
39 | LCLC-97TM1 | 0.478
40 | NCI-H2023 | 0.873
41 | A-427 | 1.03
42 | NCI-H460 | 1.13
43 | NCI-H727 | 0.774
44 | NCI-H1755 | 0.886
45 | NCI-H520 | 0.505
46 | NCI-H2405 | 0.87
47 | SW 1573 | 0.954
48 | 201T | 1.06

Row | Cell Line | relative viability
49 | NCI-H1975 | 0.352
50 | HCC-827 | 0.903
51 | NCI-H2347 | 0.74
52 | NCI-H1355 | 1.02
53 | NCI-H650 | 0.72
54 | NCI-H1666 | 0.553
55 | NCI-H23 | 1.08
56 | NCI-H1915 | 0.973
57 | NCI-H1437 | 0.523
58 | NCI-H322M | 1.29
59 | NCI-H1792 | 0.75
60 | NCI-H2085 | 1.07
61 | HCC-15 | 1.03
62 | PC-3 [JPC-3] | 0.821
63 | EKVX | 0.994
64 | LC-2-ad | 0.94

same assay, conditions: first compound 0.8 µM

Row | Cell Line | relative viability
65 | HCC-44 | 0.71
66 | LXF-289 | 0.988
67 | BEN | 0.546
68 | HARA | 1.1
69 | HCC-78 | 0.469
70 | NCI-H441 | 0.427
71 | LCLC-97TM1 | 0.476
72 | NCI-H2023 | 0.959
73 | A-427 | 0.895
74 | NCI-H460 | 0.945
75 | NCI-H727 | 0.834
76 | NCI-H1755 | 0.832
77 | NCI-H520 | 0.56
78 | NCI-H2405 | 0.87
79 | SW 1573 | 1.03
80 | 201T | 1.08
